Laboratory results: patent US20250122155A1, “NOVEL INDOLE DERIVATIVE, PHARMACEUTICAL COMPOSITION COMPRISING SAME, AND USE THEREOF” (MITOIMMUNE THERAPEUTICS INC., priority 2021, published 2025)

tested on: H9C2 cells; experiment: Protective effect on heart cells against t-BHP (LDH release); assay type: cell-based; conditions: H9C2, t-BHP 400 μM, 2 hours, read-out: EC50 (μM), Cell Protection Effect against t-BHP in Heart Cells
Procedure: In order to identify the protective effect with regard to heart cells, H9C2 cells were divided into 96-well plates by 1.5×10^4, and cultured for 24 hours. The respective wells were treated with compounds of the examples 3× serial diluted to final concentrations of 30, 10, 3, 1, 0.3, 0.1, 0.03 and 0.01 μM, then incubated for 15 to 20 minutes. After treating with t-BHP with a final concentration of 400 μM, incubation was performed for 2 hours. To confirm the protective effect of each compound, a Cytotoxicity LDH assay kit [Dojindo; CK12] was used to measure the degree of extracellular secretion of LDH. After 2-hour treatment of the cells with t-BHP was completed, 100 μL each of the supernatant in which the cells were placed was collected and moved to a new 96-well plate. 100 μL/well of the assay buffer included in the kit (same amount as the sample) was added, followed by wrapping with foil and reacting for 30 minutes at room temperature. Observing the change of color in the sample, 50 μL/well of stop solution was added, then an iD3 spectrometer was used to measure absorbance at 490 nm and calculate the EC50 values. The EC50 of the compounds of the examples is preferably no more than 1.0 μM, and more preferably no more than 0.3 μM.

**Q.** With `CCCC(C)Nc1cc(COCCOC)cc2cc(-c3ccccc3)[nH]c12` (centres unmarked) [Example 22, 5-(2-methoxyethoxymethyl)-N-(1-methylbutyl)-2-phenyl-1H-indol-7-amine] as the compound, how does the EC50 read?
**A.** ≤ 0.3 µM

**Q.** For `COCCOCc1cc(NC2CCN(S(C)(=O)=O)CC2)c2[nH]c(-c3ccccc3)cc2c1` [Example 31, 5-(2-methoxyethoxymethyl)-N-(1-methylsulfonyl-4-piperidyl)-2-phenyl-1H-indol-7-amine], which EC50 is on record?
**A.** ≤ 0.3 µM

**Q.** `COCCCOCc1cc(NC2CCCC2)c2[nH]c(-c3ccccc3)cc2c1` [Example 61, N-cyclopentyl-5-((3-methoxypropoxy)methyl)-2-phenyl-1H-indol-7-amine] was tested. Which EC50 did it give?
**A.** ≤ 0.3 µM

**Q.** `COCCOCc1cc(NC2CCCC2)c2[nH]c(-c3ccc(P(C)(C)=O)cc3)cc2c1` [Example 56, (4-(7-(cyclopentylamino)-5-((2-methoxyethoxy)methyl)-1H-indol-2-yl)phenyl)dimethylphosphine oxide] was tested. Which EC50 did it give?
**A.** ≤ 0.3 µM

**Q.** For `COCCOCc1cc(NC2CC[S+]([O-])CC2)c2[nH]c(-c3ccccc3)cc2c1` (centres unmarked) [Example 33, 5-(2-methoxyethoxymethyl)-N-(1-oxothian-4-yl)-2-phenyl-1H-indol-7-amine], which EC50 is on record?
**A.** ≤ 0.3 µM

**Q.** For `CCCNc1cc(COCCOC)cc2cc(-c3ccccc3)[nH]c12` [Example 16, 5-(2-methoxyethoxymethyl)-2-phenyl-N-propyl-1H-indol-7-amine], which EC50 is on record?
**A.** ≤ 0.3 µM

**Q.** How did the EC50 turn out when `COCCCOCc1cc(NC2CCOCC2)c2[nH]c(-c3ccccc3)cc2c1` [Example 63, 5-((3-methoxypropoxy)methyl)-2-phenyl-N-(tetrahydro-2H-pyran-4-yl)-1H-indol-7-amine] was run?
**A.** 0.3 to 1 µM

**Q.** How did the EC50 turn out when `COCCOCc1cc(NC(C)C(C)C)c2[nH]c(-c3ccccc3)cc2c1` (centres unmarked) [Example 26, N-(1,2-dimethylpropyl)-5-(2-methoxyethoxymethyl)-2-phenyl-1H-indol-7-amine] was run?
**A.** ≤ 0.3 µM

**Q.** Which EC50 does the source give for `COCCOCc1cc(NC2CCC2)c2c(c1)cc(-c1ccccc1)n2C` [Example 10, N-cyclobutyl-5-(2-methoxyethoxymethyl)-1-methyl-2-phenyl-indol-7-amine] here?
**A.** 0.3 to 1 µM

**Q.** Which EC50 does the source give for `COCCOCc1cc(NC2CCCC2)c2[nH]c(-c3ccc(C#CC(C)(C)O)cc3)cc2c1` [Example 58, 4-(4-(7-(cyclopentylamino)-5-((2-methoxyethoxy)methyl)-1H-indol-2-yl)phenyl)-2-methylbut-3-yn-2-ol] here?
**A.** 0.3 to 1 µM

**Q.** How did the EC50 turn out when `COCCOCc1cc(NC2CCCCC2)c2[nH]c(-c3ccccc3)cc2c1` [Example 13, N-cyclohexyl-5-(2-methoxyethoxymethyl)-2-phenyl-1H-indol-7-amine] was run?
**A.** ≤ 0.3 µM

**Q.** Which EC50 does the source give for `COCCOCc1cc(NC2CCOCC2)c2[nH]c(-c3ccc(P(C)(C)=O)cc3)cc2c1` [Example 57] here?
**A.** > 1 µM

**Q.** With `COCCOCc1cc(NC2CCS(=O)(=O)CC2)c2[nH]c(-c3ccccc3)cc2c1` [Example 32, N-(1,1-dioxothian-4-yl)-5-(2-methoxyethoxymethyl)-2-phenyl-1H-indol-7-amine] as the compound, how does the EC50 read?
**A.** ≤ 0.3 µM

**Q.** With `COCCOCc1cc(NC2CCOCC2)c2[nH]c(-c3ccc(C)cc3)cc2c1` [Example 60, 5-((2-methoxyethoxy)methyl)-N-(tetrahydro-2H-pyran-4-yl)-2-(p-tolyl)-1H-indol-7-amine] as the compound, how does the EC50 read?
**A.** ≤ 0.3 µM

**Q.** How did the EC50 turn out when `COCCOCc1cc(NCC(C)C)c2[nH]c(-c3ccccc3)cc2c1` [Example 15, N-isobutyl-5-(2-methoxyethoxymethyl)-2-phenyl-1H-indol-7-amine] was run?
**A.** ≤ 0.3 µM

**Q.** For `CCOCCOCc1cc(NC2CCOCC2)c2[nH]c(-c3ccccc3)cc2c1` [Example 35, 5-(2-ethoxyethoxymethyl)-2-phenyl-N-tetrahydropyran-4-yl-1H-indol-7-amine], which EC50 is on record?
**A.** ≤ 0.3 µM

**Q.** With `COCCOCc1cc(NC2CCCC2)c2[nH]cc(-c3ccccc3)c2c1` [Example 51, N-cyclopentyl-5-(2-methoxyethoxymethyl)-3-phenyl-1H-indol-7-amine] as the compound, how does the EC50 read?
**A.** ≤ 0.3 µM

**Q.** For `COCCOCc1cc(NCC2CCCC2)c2[nH]c(-c3ccccc3)cc2c1` [Example 12, N-(cyclopentylmethyl)-5-(2-methoxyethoxymethyl)-2-phenyl-1H-indol-7-amine], which EC50 is on record?
**A.** ≤ 0.3 µM

**Q.** With `CCC(CC)CNc1cc(COCCOC)cc2cc(-c3ccccc3)[nH]c12` [Example 18, N-(2-ethylbutyl)-5-(2-methoxyethoxymethyl)-2-phenyl-1H-indol-7-amine] as the compound, how does the EC50 read?
**A.** ≤ 0.3 µM

**Q.** How did the EC50 turn out when `COCCOCc1cc(NCCC(C)C)c2[nH]c(-c3ccccc3)cc2c1` [Example 19, N-isopentyl-5-(2-methoxyethoxymethyl)-2-phenyl-1H-indol-7-amine] was run?
**A.** ≤ 0.3 µM

**Q.** `COCCOCc1cc(NC2CCC(O)CC2)c2[nH]c(-c3ccccc3)cc2c1` (single isomer, unassigned) [Example 69-1, 4-((5-((2-methoxyethoxy)methyl)-2-phenyl-1H-indol-7-yl)amino)cyclohexan-1-ol] was tested. Which EC50 did it give?
**A.** ≤ 0.3 µM

**Q.** For `COCCOCc1cc(NC2CCOCC2)c2[nH]c(-c3ccc(Br)cc3)cc2c1` [Example 55, 2-(4-bromophenyl)-5-((2-methoxyethoxy)methyl)-N-(tetrahydro-2H-pyran-4-yl)-1H-indol-7-amine], which EC50 is on record?
**A.** ≤ 0.3 µM

**Q.** `COCCOCc1cc(NC2CCOCC2)c2[nH]cc(-c3ccccc3)c2c1` [Example 52, 5-(2-methoxyethoxymethyl)-3-phenyl-N-tetrahydropyran-4-yl-1H-indol-7-amine] was tested. Which EC50 did it give?
**A.** ≤ 0.3 µM

**Q.** For `CCC(CC)Nc1cc(COCCOC)cc2cc(-c3ccccc3)[nH]c12` [Example 23, N-(1-ethylpropyl)-5-(2-methoxyethoxymethyl)-2-phenyl-1H-indol-7-amine], which EC50 is on record?
**A.** ≤ 0.3 µM

**Q.** For `COCCOCc1cc(NCC2CC2)c2[nH]c(-c3ccccc3)cc2c1` [Example 21], which EC50 is on record?
**A.** ≤ 0.3 µM

**Q.** How did the EC50 turn out when `COCCOCc1cc(NC2CCC(C)(O)CC2)c2[nH]c(-c3ccccc3)cc2c1` (single isomer, unassigned) [Example 70-2, 4-((5-((2-methoxyethoxy)methyl)-2-phenyl-1H-indol-7-yl)amino)-1-methylcyclohexane-1-ol] was run?
**A.** ≤ 0.3 µM

**Q.** For `COCCOCc1cc(NC2CCOCC2)c2c(c1)cc(-c1ccccc1)n2C` [Example 53, 5-((2-methoxyethoxy)methyl)-1-methyl-2-phenyl-N-(tetrahydro-2H-pyran-4-yl)-1H-indol-7-amine], which EC50 is on record?
**A.** 0.3 to 1 µM

**Q.** `COCCOCc1cc(NC2CCN(C(=O)Nc3cc(Cl)cc(Cl)c3)CC2)c2[nH]c(-c3ccccc3)cc2c1` [Example 42, N-(3,5-dichlorophenyl)-4-[[5-(2-methoxyethoxymethyl)-2-phenyl-1H-indol-7-yl]amino]piperidine-1-carboxamide] was tested. Which EC50 did it give?
**A.** 0.3 to 1 µM

**Q.** Which EC50 does the source give for `COCCOCCc1cc(NC2CCCC2)c2[nH]c(-c3ccccc3)cc2c1` [Example 66, N-cyclopentyl-5-(2-(2-methoxyethoxy)ethyl)-2-phenyl-1H-indol-7-amine] here?
**A.** ≤ 0.3 µM

**Q.** `COCCOCc1cc(N(C2CCC2)C2CCC2)c2[nH]c(-c3ccccc3)cc2c1` [Example 9, N,N-dicyclobutyl-5-(2-methoxyethoxymethyl)-2-phenyl-1H-indol-7-amine] was tested. Which EC50 did it give?
**A.** ≤ 0.3 µM

**Q.** `COCCOCc1cc(NCC(C)(C)C)c2[nH]c(-c3ccccc3)cc2c1` [Example 11, N-(2,2-dimethylpropyl)-5-(2-methoxyethoxymethyl)-2-phenyl-1H-indol-7-amine] was tested. Which EC50 did it give?
**A.** ≤ 0.3 µM

**Q.** `COCCOCc1cc(NC2CCN(C(=O)Nc3cc(C(F)(F)F)cc(C(F)(F)F)c3)CC2)c2[nH]c(-c3ccccc3)cc2c1` [Example 41, N-[3,5-bis(trifluoromethyl)phenyl]-4-[[5-(2-methoxyethoxymethyl)-2-phenyl-1H-indol-7-yl]amino]piperidine-1-carboxamide] was tested. Which EC50 did it give?
**A.** > 1 µM

**Q.** `COCCOCCCc1cc(NC2CCOCC2)c2[nH]c(-c3ccccc3)cc2c1` [Example 65, 5-(3-(2-methoxyethoxy)propyl)-2-phenyl-N-(tetrahydro-2H-pyran-4-yl)-1H-indol-7-amine] was tested. Which EC50 did it give?
**A.** ≤ 0.3 µM

**Q.** Which EC50 does the source give for `COCCNc1cc(COCCOC)cc2cc(-c3ccccc3)[nH]c12` [Example 46, 5-(2-methoxyethoxymethyl)-N-(2-methoxyethyl)-2-phenyl-1H-indol-7-amine] here?
**A.** ≤ 0.3 µM

**Q.** Which EC50 does the source give for `COCCCOCc1cc(NC2COC2)c2[nH]c(-c3ccccc3)cc2c1` [Example 62, 5-((3-methoxypropoxy)methyl)-N-(oxetan-3-yl)-2-phenyl-1H-indol-7-amine] here?
**A.** ≤ 0.3 µM

**Q.** `COCCOCc1cc(NC2CCN(C)CC2)c2[nH]c(-c3ccccc3)cc2c1` [Example 34, 5-(2-methoxyethoxymethyl)-N-(1-methyl-4-piperidyl)-2-phenyl-1H-indol-7-amine] was tested. Which EC50 did it give?
**A.** ≤ 0.3 µM

**Q.** For `COCCOCc1cc(NCc2cccs2)c2[nH]c(-c3ccccc3)cc2c1` [Example 43, 5-(2-methoxyethoxymethyl)-2-phenyl-N-(2-thienylmethyl)-1H-indol-7-amine], which EC50 is on record?
**A.** 0.3 to 1 µM

**Q.** With `COCCOCc1cc(NC2CCOCC2)c2[nH]c(-c3cccc(F)c3)cc2c1` [Example 48, 2-(3-fluorophenyl)-5-(2-methoxyethoxymethyl)-N-tetrahydropyran-4-yl-1H-indol-7-amine] as the compound, how does the EC50 read?
**A.** ≤ 0.3 µM

**Q.** Which EC50 does the source give for `COCCOCc1cc(NC2CCC(F)(F)CC2)c2[nH]c(-c3ccccc3)cc2c1` [Example 14, N-(4,4-difluorocyclohexyl)-5-(2-methoxyethoxymethyl)2-phenyl-1H-indol-7-amine] here?
**A.** ≤ 0.3 µM

**Q.** With `COCCOCc1cc(N2CCCCC2)c2[nH]c(-c3ccccc3)cc2c1` [Example 68, 5-((2-methoxyethoxy)methyl)-2-phenyl-7-(piperidin-1-yl)-1H-indole] as the compound, how does the EC50 read?
**A.** > 1 µM

**Q.** Which EC50 does the source give for `COCCOCc1cc(NC2CCCC2)c2[nH]cc(C)c2c1` [Example 49, N-cyclopentyl-5-(2-methoxyethoxymethyl)-3-methyl-1H-indol-7-amine] here?
**A.** 0.3 to 1 µM
